Measured values published in patent US11608341B2, “Substituted tetrahydropyrazolo[3,4-d]pyrimidines and tetrahydropyrazolo[4,3-d]pyrimidines as C5A receptor modulators” (Idorsia Pharmaceuticals Ltd., priority 2018, dated 2023).

molecular target: T1, C5AR1 (Homo sapiens, UniProt P21730); assay: In vitro assay: antagonism of C5a-induced beta-arrestin recruitment (PathHunter) in CHO-K1 C5AR1 beta-arrestin cell line; format: cell-based; details: antagonistic activity, 1-10 nM C5a agonist, geometric mean where several measurements, read-out: C5aR IC50
T1 construct: host or cells: CHO-K1
T1 sequence (P21730 1-350): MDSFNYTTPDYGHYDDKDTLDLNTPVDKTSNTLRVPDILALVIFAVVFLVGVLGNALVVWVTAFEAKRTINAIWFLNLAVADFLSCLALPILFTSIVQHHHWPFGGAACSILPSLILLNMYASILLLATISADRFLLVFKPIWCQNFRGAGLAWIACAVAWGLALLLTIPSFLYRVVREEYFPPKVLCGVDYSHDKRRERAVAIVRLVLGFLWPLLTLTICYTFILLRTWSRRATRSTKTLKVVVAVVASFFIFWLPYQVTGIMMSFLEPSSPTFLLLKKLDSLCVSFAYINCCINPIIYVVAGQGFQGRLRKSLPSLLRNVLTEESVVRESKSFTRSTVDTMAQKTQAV
Summary of the method: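 Antagonist or DMSO added first, then C5a (1-10 nM, added at 6-fold end concentration), 1.5 h at 37 °C. PathHunter detection reagent was added for 45 min at RT before plate reading. IC50s come from antagonist serial dilutions in nmol/l and are geometric means of several measurements.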

Row | Structure (SMILES) | IC50
1 | CNC(=O)N1CC(n2cc3c(n2)N(Cc2ccccc2C(F)(F)F)C(=O)N(C2CCN(c4c(C)cccc4F)CC2)C3)C1 [Example 120] | 1350 nM
2 | Cc1cccc(F)c1N1CCC(N2C(=O)N(Cc3ccccc3C(F)(F)F)c3nn(C)cc3C2C)CC1 (single isomer, unassigned) [Example 221] | 77 nM
3 | Cc1cccc(F)c1N1CCC(N2Cc3cn(C(C)C(F)F)nc3N(Cc3ccccc3C(F)(F)F)C2=O)CC1 (single isomer, unassigned) [Example 187] | 13 nM
4 | Cc1cccc(F)c1N1CCC(N2Cc3cn(C4CN(C(=O)OC(C)(C)C)C4)nc3N(Cc3ccccc3C(F)(F)F)C2=O)CC1 [Example 91] | 26 nM
5 | Cn1cc2c(n1)N(Cc1ccccc1C(F)(F)F)C(=O)N(C1CCN(c3c(F)cccc3C(F)F)CC1)C2 [Example 300] | 29 nM
6 | CC1c2cn(C)nc2N(Cc2ccccc2C2CC2)C(=O)N1C1CCN(c2c(F)cccc2Cl)CC1 (single isomer, unassigned) [Example 322] | 3 nM
7 | Cc1cccc(F)c1N1CCC(N2Cc3cn(C4CN(C(=O)C(C)C)C4)nc3N(Cc3ccccc3C(F)(F)F)C2=O)CC1 [Example 131] | 100 nM
8 | COc1nccc(C)c1N1CCC(N2C(=O)N(Cc3ccccc3C(F)(F)F)c3cn(C4CC4)nc3C2C)CC1 (single isomer, unassigned) [Example 296] | 15 nM
9 | Cc1cccc(F)c1N1CCC(N2Cc3c[nH]nc3N(Cc3ncccc3C(F)(F)F)C2=O)CC1 [Example 193] | 14 nM
10 | Cc1cccc(F)c1N1CCC(N2Cc3cn(CC(C)(C)O)nc3N(Cc3ccccc3C(F)(F)F)C2=O)CC1 [Example 25] | 18 nM
11 | Cc1cccc(F)c1N1CCC(N2C(=O)N(Cc3ccccc3C(F)(F)F)c3cnn(CC(C)(F)F)c3C2C)CC1 (single isomer, unassigned) [Example 255] | 87 nM
12 | COC(=O)C(C)Cn1cc2c(n1)N(Cc1ccccc1C(F)(F)F)C(=O)N(C1CCN(c3c(C)cccc3F)CC1)C2 (stereo not drawn) [Example 31] | 13 nM
13 | CC1c2nn(C3CC3)cc2N(Cc2ccccc2C(F)(F)F)C(=O)N1C1CCN(c2c(F)cccc2Cl)CC1 (single isomer, unassigned) [Example 327] | 520 nM
14 | COc1nccc(C)c1N1CCC(N2C(=O)N(Cc3ccccc3C(F)(F)F)c3nn(C)cc3C2C)CC1 (single isomer, unassigned) [Example 331] | 6 nM
15 | Cc1cccc(F)c1N1CCC(N2Cc3cn(CC(C)CO)nc3N(Cc3ccccc3C(F)(F)F)C2=O)CC1 (stereo not drawn) [Example 39] | 16 nM
16 | COc1nccc(C)c1N1CCC(N2C(=O)N(Cc3ncccc3C(F)(F)F)c3nn(C)cc3C2C)CC1 (single isomer, unassigned) [Example 357] | 572 nM
17 | Cc1cccc(F)c1N1CCC(N2Cc3cn(CC(C)(C)NS(=O)(=O)c4ccc(Cl)cc4)nc3N(Cc3ccccc3C(F)(F)F)C2=O)CC1 [Example 101] | 22 nM
18 | Cc1cccc(F)c1N1CCC(N2C(=O)N(Cc3ccccc3C3CC3)c3nn(C4CC4)cc3C2C)CC1 (single isomer, unassigned) [Example 340] | 67 nM
19 | Cc1cccc(F)c1N1CCC(N2Cc3cn(CC(=O)N(C)C)nc3N(Cc3ccccc3C(F)(F)F)C2=O)CC1 [Example 30] | 95 nM
20 | COC(=O)C(Cn1cc2c(n1)N(Cc1ccccc1C(F)(F)F)C(=O)N(C1CCN(c3c(C)cccc3F)CC1)C2)N(C)C (stereo not drawn) [Example 53] | 46 nM
21 | Cc1cccc(F)c1N1CCC(N2Cc3cn(CCN(C)C)nc3N(Cc3ccccc3C(F)(F)F)C2=O)CC1 [Example 60] | 56 nM
22 | Cc1ccnc(C#N)c1N1CCC(N2Cc3cn(C)nc3N(Cc3ccccc3C(F)(F)F)C2=O)CC1 [Example 85] | 34 nM
23 | COc1nccc(C(F)F)c1N1CCC(N2C(=O)N(Cc3ccccc3C(F)(F)F)c3n[nH]cc3C2C)CC1 (single isomer, unassigned) [Example 352] | 11 nM
24 | Cc1cccc(F)c1N1CCC(N2Cc3cn(C4CN(c5nnc(C(F)(F)F)o5)C4)nc3N(Cc3ccccc3C(F)(F)F)C2=O)CC1 [Example 144] | 14 nM
25 | Cc1cccc(F)c1N1CCC(N2Cc3cn(CCN4CCCCC4)nc3N(Cc3ccccc3C(F)(F)F)C2=O)CC1 [Example 63] | 91 nM
26 | Cc1cccc(F)c1N1CCC(C)(N2Cc3cn(C)nc3N(Cc3ccccc3C(F)(F)F)C2=O)C1 (single isomer, unassigned) [Example 234] | 109 nM

Row | Structure (SMILES) | IC50
27 | COC[C@H](O)Cn1cc2c(n1)N(Cc1ccccc1C(F)(F)F)C(=O)N(C1CCN(c3c(C)cccc3F)CC1)C2 [Example 41] | 17 nM
28 | CC1c2nn(C3CC3)cc2N(Cc2ccccc2C(F)(F)F)C(=O)N1C1CCN(c2c(F)cccc2C(F)F)CC1 (single isomer, unassigned) [Example 329] | 18 nM
29 | Cc1cccc(F)c1N1CCCC(N2Cc3cn(C)nc3N(Cc3ccccc3C(F)(F)F)C2=O)CC1 (single isomer, unassigned) [Example 225] | 34 nM
30 | Cc1cccc(F)c1N1CCC(N2C(=O)N(Cc3ccccc3C(F)(F)F)c3cn(C4CCCCO4)nc3C2C)CC1 (stereo not drawn) [Example 294] | 56 nM
31 | Cc1cccc(F)c1N1CCC(N2Cc3cn(CC4(F)CC4)nc3N(Cc3ncccc3C(F)(F)F)C2=O)CC1 [Example 200] | 4 nM
32 | Cn1cc2c(n1)CN(C1CCN(c3c(F)cccc3C3CC3)CC1)C(=O)N2Cc1ccccc1C(F)(F)F [Example 304] | 35 nM
33 | Cc1cccc(F)c1N1CCC(N2Cc3c(cnn3C3CC3)N(Cc3ncccc3C(F)(F)F)C2=O)CC1 [Example 215] | 146 nM
34 | CC1c2cn(C3CC3)nc2N(Cc2ccccc2C(F)(F)F)C(=O)N1C1CCN(c2c(F)cccc2Br)CC1 (single isomer, unassigned) [Example 360] | 3 nM
35 | Cc1cccc(F)c1N1CCC(N2Cc3cn(C(C)CN)nc3N(Cc3ccccc3C(F)(F)F)C2=O)CC1 (stereo not drawn) [Example 79] | 676 nM
36 | Cc1cccc(F)c1N1CCC(N2Cc3cn(CC(C)(F)F)nc3N(Cc3ncccc3C(F)(F)F)C2=O)CC1 [Example 194] | 5 nM
37 | Cc1cccc(F)c1N1CCC(N2Cc3cn(C4CC4)nc3N(Cc3c(Br)cccc3C(F)(F)F)C2=O)CC1 [Example 213] | 53 nM
38 | COc1nccc(C(F)F)c1N1CCC(N2C(=O)N(Cc3ccccc3C3CC3)c3n[nH]cc3C2C)CC1 (single isomer, unassigned) [Example 370] | 19 nM
39 | Cc1cccc(F)c1N1CCC(N2Cc3cn(CC(CO)N(C)C)nc3N(Cc3ccccc3C(F)(F)F)C2=O)CC1 (stereo not drawn) [Example 56] | 91 nM
40 | Cc1cccc(F)c1N1CCC(N2C(=O)N(Cc3ccccc3C(F)(F)F)c3nn(C)cc3C2C)CC1 (single isomer, unassigned) [Example 220] | 8 nM
41 | Cc1cccc(F)c1N1CCC(N2Cc3cn(C(=O)N(C)C)nc3N(Cc3ccccc3C(F)(F)F)C2=O)CC1 [Example 149] | 70 nM
42 | COc1nccc(C)c1N1CCC(N2Cc3nn(C)cc3N(Cc3ccccc3C(F)(F)F)C2=O)CC1 [Example 224] | 76 nM
43 | Cc1cccc(F)c1N1CCCC(N2Cc3cn(C)nc3N(Cc3ccccc3C(F)(F)F)C2=O)C1 (single isomer, unassigned) [Example 242] | 628 nM
44 | Cn1cc2c(n1)N(Cc1ccccc1C1CC1)C(=O)N(C1CCN(c3c(F)cccc3C3CC3)CC1)C2 [Example 307] | 30 nM
45 | Cc1cccc(F)c1N1CCC(N2C(=O)N(Cc3ccccc3C(F)(F)F)c3cnn(COCC[Si](C)(C)C)c3C2C)CC1 (stereo not drawn) [Example 237] | 80 nM
46 | Cc1cccc(F)c1N1CCC(N2Cc3cn(C(C)(C)CN)nc3N(Cc3ccccc3C(F)(F)F)C2=O)CC1 [Example 88] | 156 nM
47 | Cn1cc2c(n1)CN(C1CCN(c3c(F)cccc3C(F)(F)F)CC1)C(=O)N2Cc1ccccc1C(F)(F)F [Example 271] | 51 nM
48 | Cc1cccc(F)c1N1CCC(N2Cc3cn(C4CN(CCF)C4)nc3N(Cc3ccccc3C(F)(F)F)C2=O)CC1 [Example 107] | 52 nM
49 | Cc1cccc(F)c1N1CCC(N2Cc3cn(C)nc3N(Cc3ccccc3OC3CC3)C2=O)CC1 [Example 21] | 13 nM
50 | Cn1cc2c(n1)N(Cc1ccccc1C1CC1)C(=O)N(C1CCN(c3c(F)cccc3Cl)CC1)C2 [Example 284] | 9 nM
51 | Cc1cccc(F)c1N1CCC(N2Cc3cn(C4CN(CC(F)F)C4)nc3N(Cc3ccccc3C(F)(F)F)C2=O)CC1 [Example 106] | 24 nM
